Laboratory results published in patent publication US20080255244A1, “CaM Kinase II Inhibitor Improves Retinoic Acid Therapy and Inhibits the Proliferation of Myeloid Leukemia Cells” (Fred Hutchinson Cancer Research Center, priority 2007, published 2008).

Tests used:
[1] = tested on: activated CaMKIIγ in KG1 cells; test: Western blot of CaMKIIγ autophosphorylation in KG1 cells; format: cell-based, human; details: five days ATRA
Experimental: (§1) FIG. 9. Terminal differentiation/apoptosis of myeloid leukemia cells is associated with decreased CaMKIIγ activation. (A) Lysates from the HL60, NB4 and U937 myeloid cell lines treated with ATRA (1 μM) for the indicated period of time were subjected to Western blots. (B) Lysates from the indicated myeloid cell lines treated for five days with the indicated concentration of ATRA were subjected to Western blots. (C) Lysates from HL60 cells treated with TPA (0.1 μM) for the indicated time were subjected to Western blots. (D) Lysates from NB4 cells treated with arsenic trioxide (1 uM) for the indicated time were subjected to Western blots.
(§2) Antibodies and Western blots. Protein extracts, immunoprecipitations and Western blots were performed as previously detailed (Si J, Collins S J. IL-3-induced enhancement of retinoic acid receptor activity is mediated through Stat5, which physically associates with retinoic acid receptors in an IL-3-dependent manner. Blood 100: 4401-9 (2002)). Antibodies against CaMKI, CaMKIIγ, CaMKIV, c-myc, Stat3, Stat5, calmodulin, as well as the phosphospecific CaMKII (T286, 287) and phosphospecific CaMKI (T177) antibodies were from Santa Cruz Biotechnology. […]

[2] = tested on: activated CaMKIIγ in KCL22 cells; test: Western blot of CaMKIIγ autophosphorylation in KCL22 cells; format: cell-based, human; details: five days ATRA
Experimental: as §1, §2

[3] = tested on: C/EBPε RARE; test: ChIP at the C/EBPε promoter RARE in HL60 cells; format: cell-based, human; details: ATRA 1 uM
Experimental: FIG. 6. Retinoic acid induces changes in the association of CaMKIIγ with the C/EBPε promoter RARE. […] (B) The human C/EBPε 5′ region indicating the location of the ChIP PCR primers. (C) ChIP assays. HL60 cell chromatin from cells treated with ATRA (1 uM) for the indicated time was immunoprecipitated with the indicated antibodies, the DNA isolated and subjected to PCR utilizing the indicated C/EBPε promoter primer pairs.
ChIP. HL60 cells incubated for various periods of time after ATRA (1 μM) treatment were harvested and crosslinked using 1% formaldehyde for 15 minutes at 37° and incubated another 15 minutes at room temperature with 125 mM glycine. Cells then were rinsed and washed three times with cold PBS. The cell pellets were resuspended in 0.2-2 ml of SDS lysis buffer (1% SDS, 10 mM EDTA, […] Tris-HCL, pH 8.1) with protease inhibitors(1 μg/ml leupeptin, […] aprotinin, 1 mM PMSF, 1 μg/ml pepstatin A, 10 μM antipain, 10 μM bestatin, 1 mM NaF, and 1× phosphatase inhibitor cocktail I/II) and sonicated three times at 20 s each to reduce DNA length to 200-800 bp. Supernatants were collected by centrifugation for 10 minutes at 13,200 rpm at 4° and diluted in 10 fold dilution buffer (0.01% SDS, 1.1% Triton X-100, 1.2 mm EDTA, 16.7 mM Tris-HCl, pH 8.1, 167 mM NaCl) with the above protease inhibitors. […]

[4] = tested on: MPRO cell line; test: Granulocytic differentiation of MPRO cell line; format: cell-based; details: single agent; not shown
From the text: Thus the CaMK inhibitor KN-62 not only enhances RAR transcriptional activity but either as a single agent or in combination with relatively low doses of RA can induce/enhance the differentiation of different myeloid leukemia cell lines.

[5] = tested on: NB4 subclones that are unresponsive to ATRA; test: Differentiation of ATRA-unresponsive NB4 subclones; format: cell-based, human
From the text: Pharmacological CaMK inhibitors trigger myeloid leukemia cell differentiation. Particularly compelling evidence for the physiological importance of the CaMKII—mediated regulation of RAR activity is our experimental observation that KN-62, a pharmacological inhibitor of the CaMKs, enhances both RAR transcriptional activity (FIG. 1B) and the differentiation of certain myeloid leukemia cell lines (FIG. 7). Acute myelogenous leukemia (AML) is a heterogenous disease, and successful therapy with RA has been generally confined to those leukemias harboring RARα chromosome translocations.

[6] = tested on: KG-1 cells; test: KG-1 proliferation in liquid suspension culture; format: cell-based, human
Experimental: (§3) FIG. 11. […] (A) K562 cells were seeded in liquid suspension culture at 5×10^4 cells/ml in the presence or absence of the indicated concentration of compounds, and cell counts were obtained at the indicated time. (B) The indicated myeloid leukemia cell lines were seeded in liquid suspension culture at 5×10^4 cells/ml in the presence or absence of KN93, and cell counts obtained at the indicated time. (C) K562 cells were electroporated with the LXSN expression vector harboring the kinase dead, Lys^43 mutated, truncated CaMKII construct (kdCaMKII) as well as with the control (empty) LXSN vector. The electroporated cells were diluted into 96 well plates in liquid suspension culture in the presence of G418 (1 mg/ml). Following eight days of culture the total number of discrete, actively proliferating G418 resistant colonies within individual wells was determined.
(§4) Cell lines. All leukemia cell lines are cultured at 37° in RPMI supplemented with 5% heat-inactivated fetal calf serum.

[7] = tested on: KCL22 cells; test: KCL22 proliferation in liquid suspension culture; format: cell-based, human
Experimental: as §3, §4

CC1=C(/C=C/C(C)=C/C=C/C(C)=C/C(=O)O)C(C)(C)CCC1 [ATRA, All-trans retinoic acid]
activated CaMKIIγ level [1]: did not exhibit any decrease
activated CaMKIIγ level [2]: did not exhibit any decrease
association of corepressors N-CoR and SMRT with the C/EBPε RARE [3]: rapid displacement
association of CaMKIIγ with the C/EBPε RARE ([3]; observed as early as 1-2 hours): dissociation

CN([C@@H](Cc1ccc(OS(=O)(=O)c2cccc3cnccc23)cc1)C(=O)N1CCN(c2ccccc2)CC1)S(=O)(=O)c1cccc2cnccc12 [KN-62]
granulocytic differentiation of MPRO [4]: enhanced
KN62-mediated differentiation of ATRA-unresponsive NB4 subclones [5]: do not observe any

COc1ccc(S(=O)(=O)N(CCO)c2ccccc2CN(C)C/C=C/c2ccc(Cl)cc2)cc1 [KN-93]
cell proliferation [6]: inhibition
cell viability or morphologic differentiation [6]: without any significant effect
cell proliferation [7]: inhibition
cell viability or morphologic differentiation [7]: without any significant effect
